For 20 molecules, AC50 results are on record in ChEMBL document CHEMBL5291721, “A preclinical secondary pharmacology resource illuminates target-adverse drug reaction associations of marketed drugs” (Nat Commun, 2023).

For orientation: AC50 means the concentration giving half of the maximal activity seen. Read a low AC50 as greater potency.

Among the targets are D(3) dopamine receptor (Homo sapiens, UniProt P35462); Mu-type opioid receptor (Homo sapiens, UniProt P35372); Vasopressin V2 receptor (Homo sapiens, UniProt P30518); Motilin receptor (Homo sapiens, UniProt O43193).
The target of a further assay is T1, Progesterone receptor (Homo sapiens, UniProt P06401).
T1 sequence (P06401 whole entry): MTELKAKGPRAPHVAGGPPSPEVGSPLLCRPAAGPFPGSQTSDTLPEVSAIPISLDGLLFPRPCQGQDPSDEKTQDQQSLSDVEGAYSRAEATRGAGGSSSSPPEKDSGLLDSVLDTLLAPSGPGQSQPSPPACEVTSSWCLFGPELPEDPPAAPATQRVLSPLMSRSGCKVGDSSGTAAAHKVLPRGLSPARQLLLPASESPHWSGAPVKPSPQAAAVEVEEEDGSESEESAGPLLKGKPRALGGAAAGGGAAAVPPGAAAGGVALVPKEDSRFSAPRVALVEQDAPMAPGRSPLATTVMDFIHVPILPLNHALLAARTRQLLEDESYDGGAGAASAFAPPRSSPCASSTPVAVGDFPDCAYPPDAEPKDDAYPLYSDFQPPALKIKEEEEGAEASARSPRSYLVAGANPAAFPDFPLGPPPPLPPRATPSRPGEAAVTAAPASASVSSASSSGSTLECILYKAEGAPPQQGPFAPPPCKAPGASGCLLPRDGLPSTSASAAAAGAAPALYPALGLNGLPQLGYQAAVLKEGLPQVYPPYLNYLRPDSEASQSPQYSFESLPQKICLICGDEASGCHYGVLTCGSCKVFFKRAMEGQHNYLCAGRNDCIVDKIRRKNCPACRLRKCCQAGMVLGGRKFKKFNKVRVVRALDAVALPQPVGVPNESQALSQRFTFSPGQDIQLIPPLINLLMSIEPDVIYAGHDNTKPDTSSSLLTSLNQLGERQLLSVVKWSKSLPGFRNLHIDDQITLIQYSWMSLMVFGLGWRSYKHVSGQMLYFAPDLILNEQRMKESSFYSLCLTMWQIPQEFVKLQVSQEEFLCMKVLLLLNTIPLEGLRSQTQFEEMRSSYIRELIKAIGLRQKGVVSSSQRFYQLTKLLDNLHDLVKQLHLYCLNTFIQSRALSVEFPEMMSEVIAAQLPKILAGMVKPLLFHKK

The target of assay [1] is Glutamate receptor ionotropic, NMDA 1 (Rattus norvegicus, UniProt P35439).
The next assay addresses T2, Adenosine receptor A1 (Homo sapiens, UniProt P30542).
T2 sequence (P30542 whole entry): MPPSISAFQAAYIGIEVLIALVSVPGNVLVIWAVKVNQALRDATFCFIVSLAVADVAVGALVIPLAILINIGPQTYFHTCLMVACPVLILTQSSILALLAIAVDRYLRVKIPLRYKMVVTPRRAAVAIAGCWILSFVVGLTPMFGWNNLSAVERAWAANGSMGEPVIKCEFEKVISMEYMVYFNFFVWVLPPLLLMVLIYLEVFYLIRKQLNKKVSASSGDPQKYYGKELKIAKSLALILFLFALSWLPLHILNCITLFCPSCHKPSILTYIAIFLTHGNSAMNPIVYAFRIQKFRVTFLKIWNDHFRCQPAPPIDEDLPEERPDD

For assay [2], the target named is T3, Equilibrative nucleoside transporter 1 (Homo sapiens, UniProt Q99808).
T3 sequence (Q99808 whole entry): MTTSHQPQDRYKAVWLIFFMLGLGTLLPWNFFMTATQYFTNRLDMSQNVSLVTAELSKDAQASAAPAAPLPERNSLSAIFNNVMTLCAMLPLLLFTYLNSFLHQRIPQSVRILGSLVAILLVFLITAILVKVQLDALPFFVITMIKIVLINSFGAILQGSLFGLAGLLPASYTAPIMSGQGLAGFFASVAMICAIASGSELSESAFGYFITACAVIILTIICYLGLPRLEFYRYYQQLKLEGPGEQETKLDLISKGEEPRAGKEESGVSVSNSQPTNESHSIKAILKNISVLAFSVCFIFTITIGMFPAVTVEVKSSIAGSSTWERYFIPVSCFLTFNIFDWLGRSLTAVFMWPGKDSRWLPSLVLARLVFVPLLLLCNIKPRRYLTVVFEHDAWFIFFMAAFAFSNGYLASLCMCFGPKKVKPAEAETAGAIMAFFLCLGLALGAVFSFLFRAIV

Assay [3] concerns the target Neuronal acetylcholine receptor subunit alpha-4 (Homo sapiens, UniProt P43681).
A further assay concerns the target T4, Thromboxane A2 receptor (Homo sapiens, UniProt P21731).
T4 sequence (P21731 whole entry): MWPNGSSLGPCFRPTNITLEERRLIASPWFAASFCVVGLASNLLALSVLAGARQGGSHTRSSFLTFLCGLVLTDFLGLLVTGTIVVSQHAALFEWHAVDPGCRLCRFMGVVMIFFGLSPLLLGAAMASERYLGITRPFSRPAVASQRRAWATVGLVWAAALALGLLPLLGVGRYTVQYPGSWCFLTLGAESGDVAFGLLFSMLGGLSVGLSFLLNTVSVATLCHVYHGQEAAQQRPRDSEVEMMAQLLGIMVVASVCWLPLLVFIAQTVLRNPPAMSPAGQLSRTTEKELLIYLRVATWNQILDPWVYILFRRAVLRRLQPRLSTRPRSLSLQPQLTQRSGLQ
Also: assay procedure not described here.

Sequence of Neuronal acetylcholine receptor subunit alpha-4 (P43681 whole entry): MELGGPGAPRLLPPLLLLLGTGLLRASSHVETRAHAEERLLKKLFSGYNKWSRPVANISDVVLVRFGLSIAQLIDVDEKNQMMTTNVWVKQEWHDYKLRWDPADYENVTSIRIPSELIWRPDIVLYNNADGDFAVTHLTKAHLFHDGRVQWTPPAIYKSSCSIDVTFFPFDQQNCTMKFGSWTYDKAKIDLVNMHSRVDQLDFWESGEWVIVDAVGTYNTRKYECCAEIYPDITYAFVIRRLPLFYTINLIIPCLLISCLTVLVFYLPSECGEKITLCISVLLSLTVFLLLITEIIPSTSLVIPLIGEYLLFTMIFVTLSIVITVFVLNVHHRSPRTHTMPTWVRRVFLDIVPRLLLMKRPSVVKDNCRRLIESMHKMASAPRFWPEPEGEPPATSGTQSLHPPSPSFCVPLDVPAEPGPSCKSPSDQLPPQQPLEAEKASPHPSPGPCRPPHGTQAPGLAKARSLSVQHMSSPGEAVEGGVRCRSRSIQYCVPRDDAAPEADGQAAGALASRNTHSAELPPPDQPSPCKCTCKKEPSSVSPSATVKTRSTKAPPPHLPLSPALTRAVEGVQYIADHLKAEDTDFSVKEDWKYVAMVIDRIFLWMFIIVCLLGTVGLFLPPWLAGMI
Sequence of D(3) dopamine receptor (P35462 whole entry): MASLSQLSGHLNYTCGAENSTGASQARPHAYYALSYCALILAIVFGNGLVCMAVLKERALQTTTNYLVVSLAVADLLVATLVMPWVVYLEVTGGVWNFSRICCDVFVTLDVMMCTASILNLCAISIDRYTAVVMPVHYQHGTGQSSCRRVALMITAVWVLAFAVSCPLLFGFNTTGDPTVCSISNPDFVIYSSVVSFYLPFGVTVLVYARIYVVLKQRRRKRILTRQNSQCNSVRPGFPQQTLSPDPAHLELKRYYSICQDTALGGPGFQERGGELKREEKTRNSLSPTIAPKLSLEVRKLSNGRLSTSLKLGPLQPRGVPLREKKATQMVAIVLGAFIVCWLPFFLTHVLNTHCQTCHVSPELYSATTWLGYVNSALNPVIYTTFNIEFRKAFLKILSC
Sequence of Mu-type opioid receptor (P35372 whole entry): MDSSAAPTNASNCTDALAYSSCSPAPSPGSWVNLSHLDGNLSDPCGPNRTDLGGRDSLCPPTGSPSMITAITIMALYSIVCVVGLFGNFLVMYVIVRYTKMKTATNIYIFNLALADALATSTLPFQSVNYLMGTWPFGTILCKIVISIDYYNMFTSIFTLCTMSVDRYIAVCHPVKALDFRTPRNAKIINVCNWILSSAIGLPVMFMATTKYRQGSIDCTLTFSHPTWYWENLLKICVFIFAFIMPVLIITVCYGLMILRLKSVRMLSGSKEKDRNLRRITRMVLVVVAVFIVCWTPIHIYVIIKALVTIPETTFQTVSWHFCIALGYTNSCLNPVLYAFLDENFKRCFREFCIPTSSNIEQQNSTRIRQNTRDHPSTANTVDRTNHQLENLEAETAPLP
Sequence of Vasopressin V2 receptor (P30518 whole entry): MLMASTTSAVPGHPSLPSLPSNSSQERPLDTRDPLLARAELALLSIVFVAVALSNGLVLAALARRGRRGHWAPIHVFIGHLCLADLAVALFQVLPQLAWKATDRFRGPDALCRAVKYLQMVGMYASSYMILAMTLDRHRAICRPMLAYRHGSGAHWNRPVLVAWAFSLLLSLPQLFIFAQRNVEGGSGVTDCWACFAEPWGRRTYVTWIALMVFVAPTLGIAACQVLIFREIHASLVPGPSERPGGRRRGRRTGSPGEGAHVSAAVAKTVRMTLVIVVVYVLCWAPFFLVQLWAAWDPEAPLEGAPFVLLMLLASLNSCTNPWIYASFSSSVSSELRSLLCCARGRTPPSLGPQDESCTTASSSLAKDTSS
Sequence of Motilin receptor (O43193 whole entry): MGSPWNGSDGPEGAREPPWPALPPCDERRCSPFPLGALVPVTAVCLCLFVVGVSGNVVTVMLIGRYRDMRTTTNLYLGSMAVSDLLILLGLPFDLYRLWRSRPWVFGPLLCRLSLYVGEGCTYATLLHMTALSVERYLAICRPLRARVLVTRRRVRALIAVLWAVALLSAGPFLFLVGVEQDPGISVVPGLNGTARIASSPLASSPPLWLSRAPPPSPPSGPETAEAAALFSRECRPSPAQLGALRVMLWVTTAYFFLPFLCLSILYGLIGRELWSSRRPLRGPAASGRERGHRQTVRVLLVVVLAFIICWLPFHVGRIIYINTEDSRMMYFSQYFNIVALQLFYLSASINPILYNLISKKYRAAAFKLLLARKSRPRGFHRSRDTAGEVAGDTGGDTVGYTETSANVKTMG

For the molecule `NC[C@H]1CC[C@H](C(=O)Oc2ccc(CCC(=O)O)cc2)CC1` [CETRAXATE], the AC50 (at Progesterone receptor; at D(3) dopamine receptor; in [1]; on Mu-type opioid receptor) was > 30 µM each time.
In the case of `COC(=O)C1=C(C)NC(C)=C(C(=O)OCCN2CCN(C(c3ccccc3)c3ccccc3)CC2)C1c1cccc([N+](=O)[O-])c1` (stereo not given) [MANIDIPINE 6300], the AC50 at Vasopressin V2 receptor is > 30 µM; on D(3) dopamine receptor, 6.3 µM; on Motilin receptor, > 30 µM; on Adenosine receptor A1 it was > 30 µM; in assay [1], > 30 µM; in assay [2], > 30 µM. In addition, the AC50 (in assay [3]; on Thromboxane A2 receptor) was > 30 µM in each case.
Take `C=C1c2cccc(O)c2C(=O)C2=C(O)[C@]3(O)C(=O)C(C(N)=O)=C(O)[C@@H](N(C)C)[C@@H]3[C@@H](O)[C@H]12` [METHACYCLINE]: the AC50 at Vasopressin V2 receptor is > 30 µM; on D(3) dopamine receptor, > 30 µM; on Motilin receptor it was > 30 µM; on Adenosine receptor A1, > 30 µM; in [1], > 10 µM; in [2], > 10 µM. In addition, the AC50 (in assay [3]; at Thromboxane A2 receptor) was > 30 µM in each case.
For `CN(Cc1cnc2nc(N)nc(N)c2n1)c1ccc(C(=O)N[C@@H](CCC(=O)O)C(=O)O)cc1` [METHOTREXATE], the AC50 at Vasopressin V2 receptor is > 30 µM; on D(3) dopamine receptor it was > 30 µM; at Motilin receptor, > 10 µM; at Adenosine receptor A1, > 30 µM; in [1] it was > 10 µM; in [2], > 30 µM. Also, the AC50 in assay [3] was > 10 µM; on Thromboxane A2 receptor, > 30 µM.
As to `COc1ccc(OC)c(C(O)C(C)N)c1` (stereo not given) [METHOXAMINE], the AC50 on Progesterone receptor and on Mu-type opioid receptor was > 30 µM each time.
As for `Cc1ccccc1N1C(=O)c2cc(S(N)(=O)=O)c(Cl)cc2NC1C` (stereo not given) [METOLAZONE], the AC50 was > 10 µM at Vasopressin V2 receptor; > 30 µM on D(3) dopamine receptor; > 10 µM at Motilin receptor; > 10 µM on Adenosine receptor A1; > 10 µM in assay [1]; > 10 µM in assay [2]. Besides, the AC50 (in assay [3]; at Thromboxane A2 receptor) was > 10 µM throughout.
Turning to `O=C(O)c1cccnc1Nc1cccc(C(F)(F)F)c1` [NIFLUMIC ACID], the AC50 was > 10 µM on Vasopressin V2 receptor; > 30 µM at D(3) dopamine receptor; > 10 µM at Motilin receptor; > 10 µM on Adenosine receptor A1; > 10 µM in assay [1]; > 10 µM in [2]. Also, the AC50 (in [3]; on Thromboxane A2 receptor) was > 10 µM throughout.
Regarding `O=C1c2cccc3c2[C@H](CCC3)CN1[C@@H]1CN2CCC1CC2` [PALONOSETRON], the AC50 at Vasopressin V2 receptor was > 30 µM; at D(3) dopamine receptor, 29 µM; on Motilin receptor it was > 30 µM; on Adenosine receptor A1 it was > 30 µM; in assay [1], > 30 µM; in [2], > 30 µM. The AC50 in assay [3] is 38.5 µM; at Thromboxane A2 receptor, > 30 µM.
As for `O=C1c2ccccc2C(=O)C1c1ccccc1` [PHENINDIONE], the AC50 is > 10 µM on Vasopressin V2 receptor; > 30 µM at D(3) dopamine receptor; > 10 µM on Motilin receptor; > 10 µM at Adenosine receptor A1; > 10 µM in assay [1]; > 10 µM in assay [2]. Moreover, the AC50 (in [3]; on Thromboxane A2 receptor) was > 10 µM each time.
With `Cc1cccc(C)c1NC(=O)CC12CCCN1CCC2` [PILSICAINIDE], the AC50 (on Vasopressin V2 receptor; at D(3) dopamine receptor; at Motilin receptor; at Adenosine receptor A1; in assay [1]; in assay [2]) was > 30 µM throughout. Besides, the AC50 (in assay [3]; at Thromboxane A2 receptor) was > 30 µM each time.
As for `CN[C@@H](C)[C@@H](O)c1ccccc1` [PSEUDOEPHEDRINE], the half-maximal activity concentration (AC50) is > 30 µM on Vasopressin V2 receptor; > 10 µM on D(3) dopamine receptor; > 10 µM at Motilin receptor; > 30 µM on Adenosine receptor A1; > 10 µM in [1]; > 30 µM in assay [2]. Also, the AC50 is > 10 µM in assay [3] and > 30 µM at Thromboxane A2 receptor.
Take `Clc1ccc(C(Cn2ccnc2)OCc2csc3c(Cl)cccc23)c(Cl)c1` (stereo not given) [SERTACONAZOLE]: the AC50 came to 0.831 µM at Progesterone receptor and 3.59 µM on Mu-type opioid receptor.
The matching figures for `CC(OCCN1CCCCCC1)(c1ccccc1)c1ccc(Cl)cc1` (stereo not given) [SETASTINE]: > 30 µM and 3.66 µM.
Turning to `C[C@]12CCC(=O)C[C@@H]1CC[C@@H]1[C@@H]2CC[C@]2(C)[C@@H](O)CC[C@@H]12` [STANOLONE], the AC50 (at Vasopressin V2 receptor; at D(3) dopamine receptor; on Motilin receptor; at Adenosine receptor A1; in assay [1]; in assay [2]) was > 30 µM each time. Besides, the AC50 (in [3]; on Thromboxane A2 receptor) was > 30 µM in each case.
In the case of `O=C1OC(OC(=O)c2cccnc2Nc2cccc(C(F)(F)F)c2)c2ccccc21` (stereo not given) [TALNIFLUMATE], the AC50 (at Vasopressin V2 receptor; at D(3) dopamine receptor; on Motilin receptor; on Adenosine receptor A1; in assay [1]; in [2]) was > 30 µM throughout. For the same molecule, the AC50 (in [3]; at Thromboxane A2 receptor) was > 30 µM throughout.
Take `O=S1(=O)CCN(CN2CCS(=O)(=O)NC2)CN1` [TAUROLIDINE]: the AC50 at Progesterone receptor is > 30 µM; at D(3) dopamine receptor it was 27 µM; in [1], > 30 µM; on Mu-type opioid receptor, > 30 µM; in [2], > 30 µM; in assay [3], > 30 µM. Also, the AC50 at Thromboxane A2 receptor is > 30 µM.
For `C[C@]12C=CC(=O)C=C1CC[C@@H]1[C@@H]2CC[C@]2(C)OC(=O)CC[C@@H]12` [TESTOLACTONE], the AC50 is > 10 µM at Vasopressin V2 receptor; > 30 µM at D(3) dopamine receptor; > 10 µM on Motilin receptor; > 10 µM at Adenosine receptor A1; > 10 µM in assay [1]; > 10 µM in assay [2]. Further, the AC50 (in assay [3]; at Thromboxane A2 receptor) was > 10 µM each time.
As to `c1ccc2c(SC3=NCCN3)c[nH]c2c1` [TINAZOLINE], the AC50 on Progesterone receptor is 24 µM; at Mu-type opioid receptor, > 30 µM.
Consider `COc1ccc2c(C(=S)N(C)CC(=O)O)cccc2c1C(F)(F)F` [TOLRESTAT], for which the AC50 at Progesterone receptor and on Mu-type opioid receptor was > 30 µM in each case.
For the molecule `CCOC(=O)c1c(CSc2ccccc2)n(C)c2cc(Br)c(O)c(CN(C)C)c12` [UMIFENOVIR], the AC50 at Vasopressin V2 receptor was > 30 µM; on D(3) dopamine receptor, 6.8 µM; on Motilin receptor it was 3.7 µM; on Adenosine receptor A1, > 30 µM; in [1], > 30 µM; in assay [2], > 30 µM. Further, the AC50 (in [3]; on Thromboxane A2 receptor) was > 30 µM throughout.
